In assay [1] the target is T1, KRAS (G12D) (Homo sapiens, UniProt P01116, G12D).
T1 construct: in-cell western with KRAS G12D antibody after 24 h
As to the kind of experiment: KRAS (G12D) cellular degradation assay in AsPC-1 cells. Type of assay: cell-based. To be noted: 24 hours, antibody fluorescence (Odyssey CLX), DC50 half-maximal degradation concentration. In outline: (§1)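 AsPC-1 cells: for degradation, grown to ~90% confluency, treated 24 h with 1:3 compound series ([…] to 1.5 nM), then fixed and immunostained for KRAS G12D and β-actin, read by infrared fluorescence, DC50 fitted. Proliferation: 3,500 cells/well, 6-day treatment, CellTiter Glo luminescence, IC50 fitted.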

Assay [2] concerns AsPC-1 cells. As to the kind of experiment: AsPC-1 cell proliferation assay (CellTiter Glo). Format: cell-based. The conditions noted are these: 6 days. In outline: as §1

T1 sequence (P01116 1-188 isoform P01116-2 G12D): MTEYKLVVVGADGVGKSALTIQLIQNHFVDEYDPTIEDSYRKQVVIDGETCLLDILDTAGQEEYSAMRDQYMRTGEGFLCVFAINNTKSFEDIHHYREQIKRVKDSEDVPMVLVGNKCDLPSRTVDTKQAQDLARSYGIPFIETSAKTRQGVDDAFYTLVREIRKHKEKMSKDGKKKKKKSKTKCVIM

In assay [1], `CO[C@@H](C)COc1nc(N2C[C@@H]3C[C@H]2CN3)c2cc(C3CC3)c(-c3c(C)c(F)cc4[nH]ncc34)c(OCc3ccc(-c4cn([C@H](C(=O)N5C[C@H](O)C[C@H]5C(=O)N[C@H](C#Cc5scnc5C)CO)C(C)C)nn4)cc3)c2n1` [Example 41, (2S,4R)-1-((2S)-2-(4-(4-(((4-((1S,4S)-2,5-diazabicyclo[2.2.1]heptan-2-yl)-6-cyclopropyl-7-(6-fluoro-5-methyl-1H-indazol-4-yl)-2-((S)-2-methoxypropoxy)quinazolin-8-yl)oxy)methyl)phenyl)-1H-1,2,3-triazol-1-yl)-3-methylbutanoyl)-4-hydroxy-N—((R)-1-hydroxy-4-(4-methylthiazol-5-yl)but-3-yn-2-yl)pyrrolidine-2-carboxamide] returned a 50% degradation concentration (DC50) of less than 10 nM. The compound also had a 50% inhibitory concentration (IC50) in assay [2] (Homo sapiens, ASPC1, 144 h) of less than 10 nM.

Take `CO[C@@H](C)COc1nc(N2C[C@@H]3C[C@H]2CN3)c2cc(C3CC3)c(-c3c(C)c(F)cc4[nH]ncc34)c(OCc3ccc(-c4cn([C@H](C(=O)N5C[C@H](O)C[C@H]5C(=O)N[C@H](C#Cc5cc(C)cc6[nH]ncc56)CO)C(C)C)nn4)cc3)c2n1` [Example 188, (2S,4R)-1-((2S)-2-(4-(4-(((4-((1S,4S)-2,5-diazabicyclo[2.2.1]heptan-2-yl)-6-cyclopropyl-7-(6-fluoro-5-methyl-1H-indazol-4-yl)-2-((S)-2-methoxypropoxy)quinazolin-8-yl)oxy)methyl)phenyl)-1H-1,2,3-triazol-1-yl)-3-methylbutanoyl)-4-hydroxy-N—((R)-1-hydroxy-4-(6-methyl-1H-indazol-4-yl)but-3-yn-2-yl)pyrrolidine-2-carboxamide]: the DC50 in assay [1] fell in the range of 10 to 100 nM. Also, the half-inhibitory concentration (IC50) in assay [2] (Homo sapiens, ASPC1, 144 h) was in the range of 10 to 100 nM.

As for `CCn1nccc1-c1ccc([C@H](C)NC(=O)[C@@H]2C[C@@H](O)CN2C(=O)[C@H](C(C)C)n2cc(-c3ccc(COc4c(-c5c(C)c(F)cc6[nH]ncc56)c(C5CC5)cc5c(N6C[C@H]7C[C@@H]6CN7)nc(OC[C@H](C)OC)nc45)cc3)nn2)cc1` (single isomer, unassigned) [Example 4A], in assay [1], the DC50 was less than 10 nM. Besides, the half-maximal inhibitory concentration (IC50) in assay [2] lay within 10 to 100 nM.

Turning to `Cc1ncsc1-c1ccc([C@@H](NC(=O)[C@@H]2C[C@@H](O)CN2C(=O)[C@H](C(C)C)n2cc(-c3ccc(COc4c(-c5c(C)c(F)cc6[nH]ncc56)c(C5CC5)cc5c(N6C[C@@H]7C[C@H]6CN7)nc(OC6CCC7(CC6)COC7)nc45)cc3)nn2)[C@H](C)O)cc1` [Example 96, (2S,4R)-1-((2S)-2-(4-(4-(((2-((2-oxaspiro[3.5]nonan-7-yl)oxy)-4-((1S,4S)-2,5-diazabicyclo[2.2.1]heptan-2-yl)-6-cyclopropyl-7-(6-fluoro-5-methyl-1H-indazol-4-yl)quinazolin-8-yl)oxy)methyl)phenyl)-1H-1,2,3-triazol-1-yl)-3-methylbutanoyl)-4-hydroxy-N-((1R,2S)-2-hydroxy-1-(4-(4-methylthiazol-5-yl)phenyl)propyl)pyrrolidine-2-carboxamide], the DC50 in assay [1] is less than 10 nM. The same compound displayed an IC50 in assay [2] (Homo sapiens, ASPC1, 144 h) of less than 10 nM.

Regarding `CCn1nccc1-c1ccc([C@@H](NC(=O)[C@@H]2C[C@@H](O)CN2C(=O)[C@H](C(C)C)n2cc(-c3ccc(COc4c(-c5c(C)c(F)cc6[nH]ncc56)c(C5CC5)cc5c(N(C)[C@H]6CCNC6)nc(OC[C@H](C)OC)nc45)cc3)nn2)[C@H](C)O)c2c1CC2` [Example 149, (2S,4R)-1-((2S)-2-(4-(4-(((6-cyclopropyl-7-(6-fluoro-5-methyl-1H-indazol-4-yl)-2-((S)-2-methoxypropoxy)-4-(methyl((S)-pyrrolidin-3-yl)amino)quinazolin-8-yl)oxy)methyl)phenyl)-1H-1,2,3-triazol-1-yl)-3-methylbutanoyl)-N-((1R,2S)-1-(5-(1-ethyl-1H-pyrazol-5-yl)bicyclo[4.2.0]octa-1(6),2,4-trien-2-yl)-2-hydroxypropyl)-4-hydroxypyrrolidine-2-carboxamide], the DC50 in assay [1] is less than 10 nM. Further, the IC50 in assay [2] (Homo sapiens, ASPC1, 144 h) was less than 10 nM.

Regarding `Cc1ncsc1-c1ccc([C@H](CO)NC(=O)[C@@H]2C[C@@H](O)CN2C(=O)[C@H](C(C)C)n2cc(-c3ccc(COc4c(-c5c(C)c(F)c(F)c6[nH]ncc56)c(C5CC5)cc5c(N6C[C@@H]7C[C@H]6CN7)nc(OC6CCOCC6)nc45)cc3)nn2)cc1` [Example 76, (2S,4R)-1-((2S)-2-(4-(4-(((4-((1S,4S)-2,5-diazabicyclo[2.2.1]heptan-2-yl)-6-cyclopropyl-7-(6,7-difluoro-5-methyl-1H-indazol-4-yl)-2-((tetrahydro-2H-pyran-4-yl)oxy)quinazolin-8-yl)oxy)methyl)phenyl)-1H-1,2,3-triazol-1-yl)-3-methylbutanoyl)-4-hydroxy-N—((R)-2-hydroxy-1-(4-(4-methylthiazol-5-yl)phenyl)ethyl)pyrrolidine-2-carboxamide], the 50% degradation concentration (DC50) in assay [1] is less than 10 nM. This compound also returned a half-inhibitory concentration (IC50) in assay [2] (Homo sapiens, ASPC1, 144 h) of less than 10 nM.

`CCn1nccc1-c1ccc([C@H](CO)NC(=O)[C@@H]2C[C@@H](O)CN2C(=O)[C@H](C(C)C)n2cc(-c3ccc(COc4c(-c5c(C)c(F)cc6[nH]ncc56)c(C5CC5(F)F)cc5c(N6C[C@@H]7C[C@H]6CN7)nc(OC[C@H](C)OC)nc45)cc3)nn2)cc1` (stereo partly drawn) [Example 52, (2S,4R)-1-((2S)-2-(4-(4-(((4-((1S,4S)-2,5-diazabicyclo[2.2.1]heptan-2-yl)-6-(2,2-difluorocyclopropyl)-7-(6-fluoro-5-methyl-1H-indazol-4-yl)-2-((S)-2-methoxypropoxy)quinazolin-8-yl)oxy)methyl)phenyl)-1H-1,2,3-triazol-1-yl)-3-methylbutanoyl)-N—((R)-1-(4-(1-ethyl-1H-pyrazol-5-yl)phenyl)-2-hydroxyethyl)-4-hydroxypyrrolidine-2-carboxamide] gave a DC50 in assay [1] of 10 to 100 nM. Also, the IC50 in assay [2] (Homo sapiens, ASPC1, 144 h) was less than 10 nM.

On to `CCn1nccc1-c1ccc([C@H](CO)NC(=O)[C@@H]2C[C@@H](O)CN2C(=O)[C@H](C(C)C)n2cc(-c3ccc(COc4c(-c5c(C)c(F)cc6[nH]ncc56)c(C5CC5)cc5c(N(C)[C@H]6[C@@H]7CN[C@H]6C7)nc(OC[C@H](C)OC)nc45)cc3)nn2)cc1` [Example 197, (2S,4R)-1-((2S)-2-(4-(4-(((4-(((1S,4S,5S)-2-azabicyclo[2.1.1]hexan-5-yl)(methyl)amino)-6-cyclopropyl-7-(6-fluoro-5-methyl-1H-indazol-4-yl)-2-((S)-2-methoxypropoxy)quinazolin-8-yl)oxy)methyl)phenyl)-1H-1,2,3-triazol-1-yl)-3-methylbutanoyl)-N—((R)-1-(4-(1-ethyl-1H-pyrazol-5-yl)phenyl)-2-hydroxyethyl)-4-hydroxypyrrolidine-2-carboxamide], for which, in assay [1], the DC50 was less than 10 nM. The same compound yielded a half-maximal inhibitory concentration (IC50) in assay [2] (Homo sapiens, ASPC1, 144 h) of less than 10 nM.

In assay [1], `CCn1nccc1-c1ccc([C@H](CO)NC(=O)[C@@H]2C[C@@H](O)CN2C(=O)[C@H](C(C)C)n2cc(-c3ccc(COc4c(-c5c(C)c(F)cc6[nH]ncc56)c(C5CC5)cc5c(N6C[C@@H]7C[C@H]6CN7)nc(OC6CCC7(CC6)COC7)nc45)cc3)nn2)cc1` [Example 43, (2S,4R)-1-((2S)-2-(4-(4-(((2-((2-oxaspiro[3.5]nonan-7-yl)oxy)-4-((1S,4S)-2,5-diazabicyclo[2.2.1]heptan-2-yl)-6-cyclopropyl-7-(6-fluoro-5-methyl-1H-indazol-4-yl)quinazolin-8-yl)oxy)methyl)phenyl)-1H-1,2,3-triazol-1-yl)-3-methylbutanoyl)-N—((R)-1-(4-(1-ethyl-1H-pyrazol-5-yl)phenyl)-2-hydroxyethyl)-4-hydroxypyrrolidine-2-carboxamide] registered a 50% degradation concentration (DC50) of less than 10 nM. In assay [2] (Homo sapiens, ASPC1, 144 h), this compound yielded an IC50 of less than 10 nM.

Compound `CO[C@@H](C)COc1nc(N2C[C@@H]3C[C@H]2CN3)c2cc(C3CC3)c(-c3c(C)c(F)cc4[nH]ncc34)c(OCc3ccc(-c4cn([C@H](C(=O)N5C[C@H](O)C[C@H]5C(=O)N[C@H](C#Cc5cc6scnc6s5)CO)C(C)C)nn4)cc3)c2n1` [Example 67, (2S,4R)-1-((2S)-2-(4-(4-(((4-((1S,4S)-2,5-diazabicyclo[2.2.1]heptan-2-yl)-6-cyclopropyl-7-(6-fluoro-5-methyl-1H-indazol-4-yl)-2-((S)-2-methoxypropoxy)quinazolin-8-yl)oxy)methyl)phenyl)-1H-1,2,3-triazol-1-yl)-3-methylbutanoyl)-4-hydroxy-N—((R)-1-hydroxy-4-(thieno[2,3-d]thiazol-5-yl)but-3-yn-2-yl)pyrrolidine-2-carboxamide] returned a DC50 in assay [1] of 10 to 100 nM. The same compound came in with an IC50 in assay [2] (Homo sapiens, ASPC1, 144 h) of 10 to 100 nM.

Turning to `CO[C@H]1C[C@H](Oc2nc(N3CCCNCC3)c3cc(C4CC4)c(-c4c(C)c(F)cc5[nH]ncc45)c(OCc4ccc(-c5cn([C@H](C(=O)N6C[C@H](O)C[C@H]6C(=O)N[C@@H](CO)c6ccc(-c7scnc7C)cc6)C(C)C)nn5)cc4)c3n2)C1` [Example 199, (2S,4R)-1-((2S)-2-(4-(4-(((6-cyclopropyl-4-(1,4-diazepan-1-yl)-7-(6-fluoro-5-methyl-1H-indazol-4-yl)-2-((1r,3r)-3-methoxycyclobutoxy)quinazolin-8-yl)oxy)methyl)phenyl)-1H-1,2,3-triazol-1-yl)-3-methylbutanoyl)-4-hydroxy-N—((R)-2-hydroxy-1-(4-(4-methylthiazol-5-yl)phenyl)ethyl)pyrrolidine-2-carboxamide], the DC50 in assay [1] is less than 10 nM. This compound also came in with an IC50 in assay [2] (Homo sapiens, ASPC1, 144 h) of less than 10 nM.

Turning to `CCn1nccc1-c1ccc([C@@H](NC(=O)[C@@H]2C[C@@H](O)CN2C(=O)[C@H](C(C)C)n2cc(-c3ccc(COc4c(-c5c(C)c(F)cc6[nH]ncc56)c(C5CC5)cc5c(N6C[C@@H]7C[C@H]6CN7)nc(OC[C@H](C)OC)nc45)cc3)nn2)[C@@H](C)O)cc1` [Example 73, (2S,4R)-1-((2S)-2-(4-(4-(((4-((1S,4S)-2,5-diazabicyclo[2.2.1]heptan-2-yl)-6-cyclopropyl-7-(6-fluoro-5-methyl-1H-indazol-4-yl)-2-((S)-2-methoxypropoxy)quinazolin-8-yl)oxy)methyl)phenyl)-1H-1,2,3-triazol-1-yl)-3-methylbutanoyl)-N-((1R,2R)-1-(4-(1-ethyl-1H-pyrazol-5-yl)phenyl)-2-hydroxypropyl)-4-hydroxypyrrolidine-2-carboxamide], the half-maximal degradation concentration (DC50) in assay [1] is less than 10 nM. The same compound showed an IC50 in assay [2] (Homo sapiens, ASPC1, 144 h) of less than 10 nM.

For the origin of these results see US20260295053A1, “COMPOUNDS FOR DEGRADATION AND INHIBITION OF KRAS (G12D) PROTEIN” (Shenzhen Ionova Life Science Co., Ltd., priority 2023, published 2026).
